Experimental data: patent publication US20180086789A1, “PHARMACEUTICAL COMPOUND” (VALLAURIX PTE. LTD., priority 2015, published 2018)
Non-standard residues stand in square brackets, D forms with d. hArg = N=C(N)NCCCC[C@H](N)C(=O)O; Nle = CCCC[C@H](N)C(=O)O

What was measured:
[1] = tested on: tyrosinase; experiment: Effects on tyrosinase activity in human melanocyte culture 1750 (3H-labeled tyrosine); type: cell-based
Method: The compound with formula structure Ac-Nle-Glu-His-D-Phe-homoArg-Trp-NH2 of the invention was tested using human melanocyte culture coded 1750 that expressed functional MC1R. The melanocytes were plated at a density of 0.3*10^6 cells onto 60 mm dishes (triplicate dishes/group). After 48 hours, the melanocytes were treated every other day for a total of six days with different doses (10^−12 M to 10^−7 M) of the compound. A control without compound was included in the test. […] On treatment day 5, ^3H-labeled tyrosine, the substrate for tyrosinase, was added and 24 hours later, the supernatant was saved to be assayed for tyrosinase activity as described by Suzuki et al (see example 2). Duplicate samples from each were assayed, with triplicate dishes included in each group. Cell number in each dish was counted, and tyrosinase activity was expressed as dpm/10^6 cells and as % of the control. Statistical analysis was carried out using ANOVA followed by Newman Kuels test.
It will be understood that this tyrosinase activation test relates to a late event after MC1R activation, compared to the earlier secondary messenger effect of the above cAMP test. As pointed out above, activity of tyrosinase requires days of treatment.

[2] = biological target: T1, MC1R (Homo sapiens, UniProt Q01726); experiment: Effects on cAMP in human melanocyte culture 1753 (radioimmunoassay); type: cell-based
T1 construct: human melanocyte culture coded 1753 that expressed functional MC1R; endogenous in cells; host or cells: human melanocyte culture coded 1753
T1 sequence (Q01726 whole entry): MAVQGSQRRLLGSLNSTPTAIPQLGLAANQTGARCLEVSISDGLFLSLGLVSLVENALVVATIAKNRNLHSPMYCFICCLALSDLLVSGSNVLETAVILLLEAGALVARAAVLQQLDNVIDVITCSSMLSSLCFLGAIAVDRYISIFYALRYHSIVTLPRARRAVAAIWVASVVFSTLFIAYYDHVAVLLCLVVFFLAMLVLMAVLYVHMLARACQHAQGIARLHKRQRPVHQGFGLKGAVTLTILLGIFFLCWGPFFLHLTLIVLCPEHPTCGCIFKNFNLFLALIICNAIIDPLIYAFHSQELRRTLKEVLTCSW
Method: The compound with formula structure Ac-Nle-Glu-His-D-Phe-homoArg-Trp-NH2 of the invention was tested using human melanocyte culture coded 1753 that expressed functional MC1R. The melanocytes were plated at a density of 0.3*10^6 cells/well. After 48 hours, the melanocytes were treated with different compound concentrations (10^−12 to 10^−7 M) for 1 hour. A control without compound was included in the test. […] The reaction was stopped by addition of 50 μl 1 N HCl and the supernatant in each well was used to measure cAMP using a radioimmunoassay as described by Suzuki 1996 (Suzuki I, Cone R D, Im S, Nordlund J J, Abdel-Malek Z: “Binding of melanotropic hormones to the MC1 receptor on human melanocytes stimulates proliferation and melanogenesis”. Endocrinology 137: 1627-1633, 1996). Duplicate samples from each well were assayed with triplicate wells included in each group. The mean of 6 cAMP measurements per group was expressed as % of the control group. Statistical analysis was carried out using ANOVA followed by Newman Kuels test. In some cases, unpaired t-test was used.

[3] = concentrations from 10^−10 M to 10^−7M

Ac-[Nle]EH[dF][hArg]W-NH2 [compound of the invention]
tyrosinase activity, highest efficacy, % of the control ([1]; 10^−8 M, six days of treatment, human melanocyte culture 1750 expressing functional MC1R): 227% | tyrosinase activity, efficacy, % of the control ([1]; 10^−9 M, six days of treatment, human melanocyte culture 1750 expressing functional MC1R): 198% | tyrosinase activity results statistically different compared to the control (p<0.05) [1, 3]: statistically different compared to the control | cAMP, highest efficacy, expressed as % of the control group ([2]; 10^−7M, 1 hour treatment, human melanocyte culture 1753 expressing functional MC1R): 216% | cAMP results statistically different compared to the control (p<0.05) [2, 3]: statistically different compared to the control
